Results on seven molecules are retold here after ChEMBL document CHEMBL4052721, “Gerontoxanthone B from Maclura cochinchinensis var. gerontogea exhibits anti-inflammatory potential as an aryl hydrocarbon receptor agonist” (Bioorg Med Chem, 2017).

Structures are written as SMILES. A value given as a limit tells only on which side of the number the result lay.

Assay type in all cases: cell-based; call rule not given here
Data set [1] has as its target T1, Aryl hydrocarbon receptor (Homo sapiens, UniProt P35869).
T1 sequence (P35869 whole entry): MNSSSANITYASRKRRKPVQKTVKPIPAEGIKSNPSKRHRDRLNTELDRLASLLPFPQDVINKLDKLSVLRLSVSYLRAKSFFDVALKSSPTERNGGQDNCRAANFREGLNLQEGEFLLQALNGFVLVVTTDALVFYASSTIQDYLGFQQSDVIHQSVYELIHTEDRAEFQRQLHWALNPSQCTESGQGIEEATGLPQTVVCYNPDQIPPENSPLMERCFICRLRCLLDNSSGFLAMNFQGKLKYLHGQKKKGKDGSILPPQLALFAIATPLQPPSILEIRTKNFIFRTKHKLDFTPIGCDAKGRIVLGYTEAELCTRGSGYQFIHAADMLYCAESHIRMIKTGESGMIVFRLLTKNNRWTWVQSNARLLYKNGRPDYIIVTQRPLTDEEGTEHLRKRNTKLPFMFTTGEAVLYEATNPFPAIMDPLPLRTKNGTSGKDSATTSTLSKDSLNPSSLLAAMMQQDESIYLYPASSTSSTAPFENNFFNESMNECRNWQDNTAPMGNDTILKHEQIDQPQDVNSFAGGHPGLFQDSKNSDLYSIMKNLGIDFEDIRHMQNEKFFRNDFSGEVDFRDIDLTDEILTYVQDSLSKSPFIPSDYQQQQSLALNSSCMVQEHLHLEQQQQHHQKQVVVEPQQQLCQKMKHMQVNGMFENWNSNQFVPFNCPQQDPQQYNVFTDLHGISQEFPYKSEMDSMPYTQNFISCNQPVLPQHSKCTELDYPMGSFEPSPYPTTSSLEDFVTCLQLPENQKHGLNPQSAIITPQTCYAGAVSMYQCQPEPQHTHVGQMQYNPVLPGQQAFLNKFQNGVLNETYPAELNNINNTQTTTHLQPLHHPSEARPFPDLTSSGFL
Description: Agonist activity at AhR in human HepG2 cells at 10 uM after 42 hrs by luciferase reporter gene assay relative to control. To be noted: read-out: FC.

For data set [2], the target named is T1, Aryl hydrocarbon receptor. Description: Agonist activity at AhR in human HepG2 cells at 1 to 10 uM after 42 hrs by luciferase reporter gene assay relative to control. (In general: A reporter such as luciferase makes a cellular process visible.)
For data set [3], the target named is T1, Aryl hydrocarbon receptor. As to the kind of experiment: Agonist activity at AhR in human HuH7 cells assessed as reduction in IL-1beta induced increase in SAA1 mRNA level at 10 nM pretreated for 20 hrs followed by Il-1beta addition measured after 4 hrs by qRT-PCR analysis. To be noted: 0.01 µM. (In qPCR the cycle at which signal appears reflects the starting amount.)

The target of data set [4] is T1, Aryl hydrocarbon receptor. Description: Agonist activity at AhR in human HepG2 cells at 5 to 20 nM after 42 hrs in presence of AhR antagonist GNF-351 by luciferase reporter gene assay.
For data set [5], the target named is T1, Aryl hydrocarbon receptor. Description: Agonist activity at AhR in human HepG2 cells at 5 to 20 nM after 42 hrs in presence of AhR antagonist 3',4'-DMF by luciferase reporter gene assay.
Data set [6] deals with HepG2. Description: Cytotoxicity against human HepG2 cells at 1 uM. To be noted: hepg2, 1 µM.
Data set [7] deals with T1, Aryl hydrocarbon receptor. Description: Agonist activity at AhR in human HepG2 cells at 2.5 to 10 uM after 42 hrs in presence of AhR antagonist GNF-351 by luciferase reporter gene assay.
Data set [8] has as its target T1, Aryl hydrocarbon receptor. As to the kind of experiment: Agonist activity at AhR in human HuH7 cells assessed as reduction in IL-1beta induced increase in SAA1 mRNA level at 10 uM pretreated for 20 hrs followed by Il-1beta addition measured after 4 hrs by qRT-PCR analysis.
Data set [9] has as its target T1, Aryl hydrocarbon receptor. Description: Agonist activity at AhR in human HepG2 cells at 2.5 to 10 uM after 42 hrs in presence of AhR antagonist CH-223191 by luciferase reporter gene assay.
Data set [10] has as its target T1, Aryl hydrocarbon receptor. Description: Agonist activity at AhR in human HepG2 cells after 42 hrs by luciferase reporter gene assay.
For data set [11], the target named is T1, Aryl hydrocarbon receptor. Description: Agonist activity at AhR in human HepG2 cells at 2.5 to 10 uM after 42 hrs in presence of AhR antagonist 3',4'-DMF by luciferase reporter gene assay.
For data set [12], the system named is HepG2. As to the kind of experiment: Cytotoxicity against human HepG2 cells at 20 uM. To be noted: hepg2, 20 µM.

For `CC(C)=CCc1c(O)ccc2oc3c4c(cc(O)c3c(=O)c12)OC(C)(C)C=C4`, in data set [1], the fold induction at 10 µM was at least 2.
For the molecule `C=CC(C)(C)c1c(O)cc2oc3c(O)c(OCC=C(C)C)ccc3c(=O)c2c1O`, the “fold change (FC)” value in [2] is “>= 2”.
Regarding `Clc1cc2c(cc1Cl)Oc1cc(Cl)c(Cl)cc1O2` [2,3,7,8-TETRACHLORODIBENZO-P-DIOXIN], the figures for the Activity result in data set [3], in [4] and in data set [5] were “Active”, “Not Active” and “Not Active”, respectively.
Take `CC1Oc2cc3oc4c(O)c5c(cc4c(=O)c3c(O)c2C1(C)C)C=CC(C)(C)O5` (stereo unspecified) [GERONTOXANTHONE A]: in the data set with HepG2 [6], the Activity result is given as “Toxic”. In data set [2], the “fold change (FC)” value is “>= 2”.
With `C=CC(C)(C)c1c(O)cc2oc3c(O)c4c(cc3c(=O)c2c1O)C=CC(C)(C)O4` [GERONTOXANTHONE B], the Activity result in data set [7] is on record as “Not Active”; in [8], “Active”; in data set [9], “Active”; in data set [10] it was “Dose-dependent effect”; in data set [11] it was “Not Active”; in the data set with HepG2 [12] it was “Toxic”. Besides, the “fold change (FC)” value in data set [2] was “>= 2”.
Consider `CC(C)=CCc1c(O)cc(O)c2c(=O)c3c(CC=C(C)C)c(O)ccc3oc12` [GERONTOXANTHONE H], for which the “fold change (FC)” value in data set [2] is on record as “>= 2”.
In the case of `C=CC(C)(C)c1c(O)c(CC=C(C)C)c(O)c2c(=O)c3ccc(O)c(O)c3oc12` [GERONTOXANTHONE I], in data set [1], the fold induction at 10 µM is at least 2.
